Experimental data published in ChEMBL document CHEMBL1201862, “PubChem BioAssay data set” (2004).
The source made the active and inactive calls.

How the values were obtained:
[1] = off-target signal loss in HeLa-CEM21 co-culture – HeLa F-luc CTL cells, cherry-picked, counter-screen for HIV-1 Env fusion inhibitor project, dose response (AID 652040); format: functional, cell-based;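 also: potency for signal decrease marking cytotoxic or nonspecific inhibition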
[2] = microbe, parasite or virus in culture; format: functional; conditions: Mycobacterium tuberculosis
[3] = CEM21 lymphoblast cell cytotoxicity, dose response, cytotoxicity control for viral fusion inhibitor project, CellTiter-Glo luminescence, cherry-picked (AID 652042); format: functional, cell-based;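 also: potency for signal decrease meaning cytotoxicity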
[4] = inhibitors of HIV Env-driven cell fusion, dose response, cherry-pick (AID 652057); format: functional, cell-based
[5] = inhibitors of clade B AD8 Env fusion, dose response, cell-based, cherry-pick (AID 652062); format: functional;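 also: luciferase signal from cell-cell fusion driven by HIV-1 clade B AD8 Env; potency is for inhibitors of fusion seen as a drop in luminescence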
[6] = ZM109 Env clade C HIV-1 fusion inhibitors, dose response, HeLa effector, CEM target cells, luciferase, cherry-pick (AID 652058); format: functional, cell-based
Caspase-3 = biological target: T1, Caspase-3 (Homo sapiens, UniProt P42574); format: functional;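 also: Dose-response selectivity test against caspase-3 for candidate inhibitors of sentrin-specific proteases (SENPs)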
T1 sequence (P42574 whole entry): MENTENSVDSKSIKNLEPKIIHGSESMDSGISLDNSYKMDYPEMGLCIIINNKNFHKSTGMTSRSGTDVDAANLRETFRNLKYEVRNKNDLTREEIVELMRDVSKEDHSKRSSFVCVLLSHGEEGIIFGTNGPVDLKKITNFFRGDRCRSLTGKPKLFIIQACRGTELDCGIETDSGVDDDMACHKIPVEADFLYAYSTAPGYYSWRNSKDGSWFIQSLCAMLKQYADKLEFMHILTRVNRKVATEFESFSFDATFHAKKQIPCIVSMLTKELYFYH

[7] = biological target: T2, Sentrin-specific protease 8 (Homo sapiens, UniProt Q96LD8); format: functional;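 also: luminescence read-out of SENP8 inhibition, dose-response confirmation following an ultra-high-throughput screen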
T2 sequence (Q96LD8 whole entry): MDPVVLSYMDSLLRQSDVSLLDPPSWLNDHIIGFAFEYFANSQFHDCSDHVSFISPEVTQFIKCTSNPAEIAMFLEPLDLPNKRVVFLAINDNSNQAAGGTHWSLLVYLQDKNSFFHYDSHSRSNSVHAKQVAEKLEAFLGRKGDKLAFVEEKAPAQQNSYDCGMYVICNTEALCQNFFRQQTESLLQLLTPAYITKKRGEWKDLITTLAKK

[8] = biological target: T3, Sentrin-specific protease 7 (Homo sapiens, UniProt Q9BQF6); format: functional;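 also: Luminescence-based dose-response confirmation of ultra-high-throughput screening hits, measuring inhibition of SENP7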
T3 sequence (Q9BQF6 whole entry): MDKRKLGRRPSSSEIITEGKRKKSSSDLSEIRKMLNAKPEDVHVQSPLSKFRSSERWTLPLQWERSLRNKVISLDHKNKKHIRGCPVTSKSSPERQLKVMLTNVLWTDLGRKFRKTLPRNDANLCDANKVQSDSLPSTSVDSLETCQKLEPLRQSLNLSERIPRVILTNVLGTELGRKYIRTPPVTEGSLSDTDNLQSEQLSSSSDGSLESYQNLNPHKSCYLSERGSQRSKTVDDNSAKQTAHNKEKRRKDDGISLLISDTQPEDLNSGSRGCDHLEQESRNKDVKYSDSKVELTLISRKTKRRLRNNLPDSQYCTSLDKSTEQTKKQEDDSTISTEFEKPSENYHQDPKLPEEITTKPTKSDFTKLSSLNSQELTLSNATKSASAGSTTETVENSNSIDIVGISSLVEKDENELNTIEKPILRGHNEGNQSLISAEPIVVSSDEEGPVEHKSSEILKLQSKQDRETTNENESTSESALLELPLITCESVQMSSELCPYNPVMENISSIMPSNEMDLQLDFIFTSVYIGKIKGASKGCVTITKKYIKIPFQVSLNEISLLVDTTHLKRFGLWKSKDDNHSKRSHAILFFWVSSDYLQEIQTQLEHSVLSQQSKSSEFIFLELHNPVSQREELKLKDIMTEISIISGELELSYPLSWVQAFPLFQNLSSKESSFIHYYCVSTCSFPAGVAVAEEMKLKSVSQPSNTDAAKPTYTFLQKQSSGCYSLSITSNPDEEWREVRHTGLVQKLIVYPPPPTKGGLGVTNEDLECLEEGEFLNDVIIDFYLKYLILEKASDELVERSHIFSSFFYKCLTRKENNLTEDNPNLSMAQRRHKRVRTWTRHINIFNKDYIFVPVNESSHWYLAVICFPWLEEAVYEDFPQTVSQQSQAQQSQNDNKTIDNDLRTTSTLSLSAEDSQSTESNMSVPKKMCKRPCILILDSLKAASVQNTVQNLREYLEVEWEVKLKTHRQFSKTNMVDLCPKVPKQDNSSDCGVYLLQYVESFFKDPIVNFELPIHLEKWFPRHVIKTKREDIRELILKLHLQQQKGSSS

[9] = biological target: T4, Sentrin-specific protease 6 (Homo sapiens, UniProt Q9GZR1); format: functional;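 also: Luminescence-based dose-response confirmatory assay of SENP6 inhibition, following up an ultra-high-throughput screen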
T4 sequence (Q9GZR1 whole entry): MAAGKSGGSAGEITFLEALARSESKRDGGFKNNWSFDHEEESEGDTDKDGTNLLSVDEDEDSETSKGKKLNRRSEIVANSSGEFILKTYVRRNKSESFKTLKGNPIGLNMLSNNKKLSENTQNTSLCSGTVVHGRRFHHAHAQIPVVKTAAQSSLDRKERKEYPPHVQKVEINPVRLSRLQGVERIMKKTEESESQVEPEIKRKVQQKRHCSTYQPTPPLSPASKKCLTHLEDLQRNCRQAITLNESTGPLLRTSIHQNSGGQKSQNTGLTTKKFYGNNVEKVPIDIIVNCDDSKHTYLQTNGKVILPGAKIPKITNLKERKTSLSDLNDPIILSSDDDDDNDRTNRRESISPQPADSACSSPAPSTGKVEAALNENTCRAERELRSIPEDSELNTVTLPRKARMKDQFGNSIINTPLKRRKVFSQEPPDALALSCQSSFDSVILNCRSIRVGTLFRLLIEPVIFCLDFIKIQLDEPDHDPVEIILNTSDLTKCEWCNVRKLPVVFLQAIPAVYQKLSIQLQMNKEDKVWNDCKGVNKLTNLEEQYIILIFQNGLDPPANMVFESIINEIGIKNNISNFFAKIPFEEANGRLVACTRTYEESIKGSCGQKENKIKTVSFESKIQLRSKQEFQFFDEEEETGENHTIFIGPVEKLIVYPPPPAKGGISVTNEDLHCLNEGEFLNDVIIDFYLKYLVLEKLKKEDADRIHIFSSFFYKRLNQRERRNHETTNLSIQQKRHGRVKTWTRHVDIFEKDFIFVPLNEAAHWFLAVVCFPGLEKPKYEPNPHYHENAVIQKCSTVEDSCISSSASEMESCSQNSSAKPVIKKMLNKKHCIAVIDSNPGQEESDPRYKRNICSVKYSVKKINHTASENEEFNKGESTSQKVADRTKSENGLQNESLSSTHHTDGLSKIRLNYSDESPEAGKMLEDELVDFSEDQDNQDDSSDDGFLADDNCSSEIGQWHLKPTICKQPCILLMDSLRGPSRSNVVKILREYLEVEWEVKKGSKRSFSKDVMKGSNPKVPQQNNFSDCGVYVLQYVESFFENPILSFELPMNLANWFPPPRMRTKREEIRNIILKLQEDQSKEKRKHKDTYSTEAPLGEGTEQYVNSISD

Beta-galactosidase = Beta-galactosidase (Escherichia coli, UniProt Q8VNN2); test: Dose response counterscreen for EBI2 assay utilizing the enzyme, b-galactosidase.; format: functional
Beta-galactosidase, sequence (Q8VNN2 whole entry): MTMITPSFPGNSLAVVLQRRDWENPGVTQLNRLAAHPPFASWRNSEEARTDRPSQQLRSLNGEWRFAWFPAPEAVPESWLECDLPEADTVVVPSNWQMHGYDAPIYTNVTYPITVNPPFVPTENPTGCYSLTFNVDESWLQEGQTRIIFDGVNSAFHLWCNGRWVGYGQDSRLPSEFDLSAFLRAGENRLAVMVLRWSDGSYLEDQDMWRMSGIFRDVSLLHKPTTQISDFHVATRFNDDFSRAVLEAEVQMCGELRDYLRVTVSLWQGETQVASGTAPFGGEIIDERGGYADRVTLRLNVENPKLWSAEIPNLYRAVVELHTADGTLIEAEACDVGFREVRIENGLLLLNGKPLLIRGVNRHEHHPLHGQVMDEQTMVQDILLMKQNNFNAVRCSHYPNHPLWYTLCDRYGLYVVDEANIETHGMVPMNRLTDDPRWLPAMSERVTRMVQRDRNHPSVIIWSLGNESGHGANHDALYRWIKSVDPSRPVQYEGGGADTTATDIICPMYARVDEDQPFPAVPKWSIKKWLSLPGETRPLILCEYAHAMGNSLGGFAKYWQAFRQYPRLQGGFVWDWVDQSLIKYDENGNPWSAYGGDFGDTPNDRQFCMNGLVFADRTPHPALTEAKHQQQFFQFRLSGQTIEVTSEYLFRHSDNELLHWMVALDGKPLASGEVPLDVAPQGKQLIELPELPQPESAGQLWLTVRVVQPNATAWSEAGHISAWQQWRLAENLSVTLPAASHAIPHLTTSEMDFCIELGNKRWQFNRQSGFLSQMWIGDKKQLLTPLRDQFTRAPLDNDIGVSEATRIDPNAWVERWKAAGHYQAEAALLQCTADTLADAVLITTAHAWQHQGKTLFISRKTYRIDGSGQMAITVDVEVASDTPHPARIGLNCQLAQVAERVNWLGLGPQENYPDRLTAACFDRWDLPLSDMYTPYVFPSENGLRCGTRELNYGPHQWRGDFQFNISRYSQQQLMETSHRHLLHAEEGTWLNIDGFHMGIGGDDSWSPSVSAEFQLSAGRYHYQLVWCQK

P388/ADR = test: cells; format: functional; conditions: Mus musculus
P388 = test: cells; format: functional; conditions: Mus musculus
SN12K1 = test: cells; format: functional; conditions: Homo sapiens
[10] = miR-122 activators in hepatoma reporter cells, dose response, cell-based, Huh7 psiCHECK-miR122, Renilla luciferase, cherry-picked (AID 651956); format: functional;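 also: huh7 hepatoma cells stably carrying a psiCHECK-2 miR-122 sensor plasmid; renilla luciferase signal reporting endogenous miR-122 activity after 48 h compound exposure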
[11] = HEK293T cytotoxicity, dose response, cytotoxicity control for miR-122 modulator project, cell-based, activator set, cherry-pick (AID 720690); format: functional;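 also: HEK293T human cells scored for general mammalian cytotoxicity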
Large T antigen = Large T antigen (Simian virus 40, UniProt P03070); format: functional, Betapolyomavirus macacae;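 also: Confirmatory-stage PubChem screen for compounds that inhibit SV40 T antigen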
Large T antigen, sequence (P03070 whole entry): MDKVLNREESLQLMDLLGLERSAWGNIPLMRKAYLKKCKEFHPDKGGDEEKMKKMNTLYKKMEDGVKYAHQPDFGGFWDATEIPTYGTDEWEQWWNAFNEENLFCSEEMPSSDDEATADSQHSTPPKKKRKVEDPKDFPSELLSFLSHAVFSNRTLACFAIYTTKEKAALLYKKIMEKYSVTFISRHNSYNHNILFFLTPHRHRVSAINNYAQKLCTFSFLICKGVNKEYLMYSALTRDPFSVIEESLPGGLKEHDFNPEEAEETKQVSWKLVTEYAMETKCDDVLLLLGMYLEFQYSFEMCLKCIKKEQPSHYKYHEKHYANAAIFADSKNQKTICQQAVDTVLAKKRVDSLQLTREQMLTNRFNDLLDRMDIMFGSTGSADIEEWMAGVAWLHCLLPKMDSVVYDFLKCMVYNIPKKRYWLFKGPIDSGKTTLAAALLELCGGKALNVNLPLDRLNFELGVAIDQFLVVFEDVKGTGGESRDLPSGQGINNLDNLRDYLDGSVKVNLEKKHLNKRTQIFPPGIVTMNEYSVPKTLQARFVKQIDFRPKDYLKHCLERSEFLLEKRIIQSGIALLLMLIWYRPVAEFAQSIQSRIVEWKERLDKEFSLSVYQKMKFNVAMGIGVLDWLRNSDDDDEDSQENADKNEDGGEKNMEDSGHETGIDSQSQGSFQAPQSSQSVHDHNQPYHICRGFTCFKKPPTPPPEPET

Leucine aminopeptidase = biological target: T5, Leucine aminopeptidase (Plasmodium falciparum 3D7, UniProt Q8IL11); test: P. falciparum M17LAP inhibitors, primary screen, biochemical, fluorogenic H-Leu-NHMec substrate, 1536-well (AID 1619); format: functional
T5 sequence (Q8IL11 whole entry): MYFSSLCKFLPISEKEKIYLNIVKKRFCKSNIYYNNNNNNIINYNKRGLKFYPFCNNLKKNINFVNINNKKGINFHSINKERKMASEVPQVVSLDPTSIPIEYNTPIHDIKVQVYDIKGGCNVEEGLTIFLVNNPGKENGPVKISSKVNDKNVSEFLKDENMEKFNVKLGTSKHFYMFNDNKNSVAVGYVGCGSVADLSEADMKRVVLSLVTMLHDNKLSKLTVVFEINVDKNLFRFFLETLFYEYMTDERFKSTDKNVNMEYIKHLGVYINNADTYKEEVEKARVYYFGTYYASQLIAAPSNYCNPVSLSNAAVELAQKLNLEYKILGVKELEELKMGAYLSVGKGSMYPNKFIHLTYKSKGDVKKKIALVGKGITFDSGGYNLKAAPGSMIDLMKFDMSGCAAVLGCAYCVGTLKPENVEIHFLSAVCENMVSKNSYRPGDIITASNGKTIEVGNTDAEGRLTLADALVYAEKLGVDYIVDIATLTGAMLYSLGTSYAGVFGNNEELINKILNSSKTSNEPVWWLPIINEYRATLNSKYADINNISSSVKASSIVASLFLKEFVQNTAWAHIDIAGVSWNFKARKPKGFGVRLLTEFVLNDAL

## Cc1ccccc1-c1nc(CN2CCC(C(=O)NCCC3=CCCCC3)CC2)c(C)o1
[1]
  AC50: 7.7 µM (active)
[2]
  CC50: > 40 µM (active)
[3]
  AC50: 25.6 µM (active)
[4]
  AC50: 4.21 µM (active)
[5]
  AC50: 7.96 µM (active)
[6]
  AC50: 6.35 µM (active)

## CC(=O)Nc1ccc(C(=O)COC(=O)C2CCCCC2)c(F)c1
Caspase-3
  IC50: 17.5 µM (active)
[7]
  IC50: 65.6 µM (active)
[8]
  IC50: 6.32 µM (active)
[9]
  IC50: 20.4 µM (active)

## COc1ccc2c3c([nH]c2c1)[C@@H](CO)N(C(=O)Nc1cccc(F)c1)CC31CCN(S(=O)(=O)c2ccccc2)CC1
[3]
  AC50: 21 µM (active)
[4]
  AC50: 23.2 µM (active)

## Cc1cc(C)n(-c2ccc(C(=O)N3CCN(S(=O)(=O)c4ccc(Br)cc4Cl)CC3)cc2)n1
Beta-galactosidase
  IC50: > 80 µM (inactive)

## Nc1ccc(/C=C/c2ccc3ncccc3c2)cc1
Caspase-3
  IC50: 22.8 µM (active)
[7]
  IC50: > 100 µM (inactive)
[8]
  IC50: 10.4 µM (active)
[9]
  IC50: 9.32 µM (active)

## CN(C)C(CN)CC1=C(CC(CN)N(C)C)CCC1 (configuration not stated)
P388/ADR
  GI50: > 100 µM (inactive)
P388
  GI50: > 100 µM (inactive)
SN12K1
  GI50: > 100 µM (inactive)

## CCOC(=O)/C(O)=C1\C(=O)N(C)C(=O)C1c1ccc(OC)c(OC)c1 (configuration not stated)
P388/ADR
  GI50: > 31.6 µM (inactive)
P388
  GI50: > 100 µM (inactive)
SN12K1
  GI50: > 100 µM (inactive)

## C[C@H](CO)N1C[C@H](C)[C@H](CN(C)S(=O)(=O)c2cccc(F)c2)Oc2ncc(C#CC3CCCCC3)cc2C1=O
[10]
  AC50: 6.43 µM (active)
[11]
  AC50: 32.3 µM (active)

## CN1CCN(C(=O)/C=C/c2ccc(Cl)c(Cl)c2)CC1
Beta-galactosidase
  IC50: > 80 µM (inactive)

## CC1=C(C(=O)Nc2ccc(Cl)c(C(=O)OC(C)C)c2)SCCO1
P388/ADR
  GI50: 29.2 µM (inactive)
P388
  GI50: 23.2 µM (inactive)
SN12K1
  GI50: 58.6 µM (inactive)

## Cc1[nH]c2ccc(C(=O)N3CCN(c4ccc(F)cc4)CC3)cc2c1C
Beta-galactosidase
  IC50: > 80 µM (inactive)

## CCC1(O)CC(OC2CC(N(C)C)C(OC3CC4OC5CC(=O)C(C)OC5OC4C(C)O3)C(C)O2)c2c(cc3c(c2O)C(=O)c2c(O)ccc(O)c2C3=O)C1C(=O)OC (configuration not stated)
P388/ADR
  GI50: 0.000703 µM (active)
P388
  GI50: 0.000368 µM (active)
SN12K1
  GI50: 0.00741 µM (active)

## CNC[C@@H]1Oc2cc(C#Cc3cccc(OC)c3)ccc2S(=O)(=O)N([C@@H](C)CO)C[C@@H]1C
[10]
  AC50: 9.73 µM (active)
[11]
  AC50: 14.9 µM (active)

## C[C@@H]1CCCCO[C@@H](CN(C)CC2CCCCC2)[C@H](C)CN([C@@H](C)CO)C(=O)c2cc(NC(=O)Nc3cccc4ccccc34)ccc2O1
[10]
  AC50: 5.03 µM (active)
[11]
  AC50: 47.3 µM (active)

## CCOc1ccc(NC(S)=Nc2ccc(C)c([N+](=O)[O-])c2)cc1
Beta-galactosidase
  IC50: 131 µM (inactive)

## CCN(CC)c1ccc(NC(=O)COC(=O)c2cccs2)cc1
Large T antigen
  IC50: 15.2 µM (active)
Caspase-3
  IC50: 16.2 µM (active)
[7]
  IC50: > 100 µM (inactive)
[8]
  IC50: 11.7 µM (active)
[9]
  IC50: 98.2 µM (active)
Leucine aminopeptidase
  IC50: 15.7 µM (active)

## COc1cc2c(cc1OC)C(Cc1c3ccccc3cc3ccccc13)N(C)CC2 (configuration not stated)
P388/ADR
  GI50: 15.8 µM (inactive)
P388
  GI50: 18.7 µM (inactive)
SN12K1
  GI50: 15.5 µM (inactive)
